Reference: patent US10238618B2, “Compositions and methods for diagnosis and treatment of anemia” (The United States of America as represented by the …, priority 2016, dated 2019)

Key:
Assay type in all cases: in vivo, bottlenose dolphin (Tursiops truncatus)
[1] = Serum fatty acid form concentrations (complex lipidomics) in dolphins fed modified diet; conditions: case dolphins fed modified diet (n = 20)
Method: (§1) Determination of serum fatty acid concentrations, including a variety of fatty acid classes, were performed by Metabolon, Inc. (Durham, N.C.) using complex lipidomics. Lipids were extracted from samples using dichloromethane and methanol in a modified Bligh-Dyer extraction in the presence of internal standards with the lower, organic, phase being used for analysis. The extracts were concentrated under nitrogen and reconstituted in 0.25 mL of dichloromethane:methanol (50:50) containing 10 mM ammonium acetate. The extracts were placed in vials for infusion-MS analyses, performed on a SelexION equipped Sciex 5500 QTRAP using both positive and negative mode electrospray. Each sample was subjected to 2 analyses, with IMS-MS conditions optimized for lipid classes monitored in each analysis. The 5500 QTRAP was operated in MRM mode to monitor the transitions for over 1,100 lipids from up to 14 lipid classes. Individual lipid species were quantified based on the ratio of signal intensity for target compounds to the signal intensity for an assigned internal standard of known concentration. Lipid class concentrations were calculated from the sum of all molecular species within a class, and fatty acid compositions were determined by calculating the proportion of individual fatty acids within each class. […]

[2] = Total serum fatty acid concentrations in dolphins fed modified diet; conditions: for concentration at 0 month / concentration at 1 month / concentration at 3 month / concentration at 6 month: bottlenose dolphin (Tursiops truncatus), Case dolphins fed modified diet (n = 20); for concentration at 0 month: Month 0 (baseline), 2 h postprandial; for concentration at 1 month: Month 1, 2 h postprandial; for concentration at 3 month: Month 3, 2 h postprandial; for concentration at 6 month: Month 6, 2 h postprandial
Method: CV % were typically under 10%.
as §1

red blood cell indices = test: Stepwise and simple linear regression: serum fatty acids as predictors of red blood cell indices; conditions: Group A dolphins on the modified diet
Method: Fatty acids that were independent predictors of red blood cell indices were then tested for linear associations with red blood cell indices using simple linear regressions.

[3] = Serum total fatty acids (% of total fatty acids), MMP dolphins versus wild Sarasota Bay dolphins
Source text: Dolphins at the Navy Marine Mammal Program (MMP) are a well-studied dolphin population with regard to chronic diseases and diseases of aging, and this population is more susceptible to anemia (lower packed cell volume and lower hemoglobin) compared to wild dolphins living in Sarasota Bay, Fla. (Table 1). MMP dolphins also have lower total serum odd chain saturated fatty acids and lower very long even chain saturated fatty acids compared to Sarasota Bay dolphins (Table 1, See also Venn-Watson et al. (2016) Increased dietary intake of saturated fatty acid heptadecanoic acid (C17:0) associated with decreasing ferritin and alleviated metabolic syndrome in dolphins. […] Proposed risk factors for anemia in MMP dolphins can include advanced age, chronic disease, and diet (see Venn-Watson S, Smith C R, Gomez F, Jensen E D (2011) Physiology of aging among healthy, older bottlenose dolphins (Tursiops truncatus): comparisons with aging humans. J Comp Phys B 181:667-680). It can be hypothesized that differences in dietary fish (and differences in certain fatty acids associated with particular types of fish) can be responsible for the risk of anemia.

[4] = wild Sarasota Bay Dolphins (n = 19)

SMILES | Serum concentrations of fatty acid forms ([1]; Month 0 (baseline)) [µM] | Serum concentrations of fatty acid forms ([1]; Month 1) [µM] | Serum concentrations of fatty acid forms ([1]; Month 3) [µM] | Serum concentrations of fatty acid forms ([1]; Month 6) [µM] | also measured
CCCCCCCCCCCCCC(=O)O[C@H]1CC[C@@]2(C)C(=CC[C@H]3[C@@H]4CC[C@H]([C@H](C)CCCC(C)C)[C@@]4(C)CC[C@@H]32)C1 [C14:0 CE] | 126 ± 32 | 86 ± 21 | 93 ± 20 | 92 ± 25 | 
CCCCCCCCCCCCCC(=O)O [C14:0, myristic acid] |  |  |  |  | concentration at 0 month ([2]; serum, oral): 243 ± 63 µM; concentration at 1 month ([2]; serum, oral): 195 ± 50 µM; concentration at 3 month ([2]; serum, oral): 226 ± 46 µM; concentration at 6 month ([2]; serum, oral): 206 ± 33 µM
CCCCCCCCCCCCCCC(=O)O[C@H]1CC[C@@]2(C)C(=CC[C@H]3[C@@H]4CC[C@H]([C@H](C)CCCC(C)C)[C@@]4(C)CC[C@@H]32)C1 [C15:0 CE] | 22 ± 5 | 61 ± 19 | 66 ± 17 | 64 ± 22 | Increased serum concentration as independent, linear predictor of red blood cell indices (red blood cell indices): independently predicted improved red blood cell indices
CCCCCCCCCCCCCCC(=O)O [C15:0 FFA] | 3.8 ± 1.3 | 4.2 ± 1.5 | 3.6 ± 0.8 | 3.8 ± 1.3 | 
CCCCCCCCCCCCCCC(=O)O [C15:0, pentadecanoic acid] |  |  |  |  | Increased serum concentration as independent, linear predictor of red blood cell indices (red blood cell indices): independently predicted higher hematocrit, higher packed cell volume, higher hemoglobin, and higher red blood cell counts; Serum fatty acid (%) ([3]; MMP Dolphins (n = 30)): 0.3 ± 0.1%; Serum fatty acid (%) [3, 4]: 1.1 ± 0.4%; concentration at 0 month ([2]; serum, oral): 35 ± 9 µM; concentration at 1 month ([2]; serum, oral): 94 ± 33 µM; concentration at 3 month ([2]; serum, oral): 111 ± 29 µM; concentration at 6 month ([2]; serum, oral): 101 ± 29 µM
CCCCCCCCCCCCCCCC(=O)O[C@H]1CC[C@@]2(C)C(=CC[C@H]3[C@@H]4CC[C@H]([C@H](C)CCCC(C)C)[C@@]4(C)CC[C@@H]32)C1 [C16:0 CE] | 273 ± 50 | 226 ± 41 | 244 ± 33 | 245 ± 48 | 
CCCCCCCCCCCCCCCC(=O)O [C16:0, palmitic acid] |  |  |  |  | concentration at 0 month ([2]; in vivo): 1440 ± 194 µM; concentration at 1 month ([2]; in vivo): 1370 ± 199 µM; concentration at 3 month ([2]; in vivo): 1500 ± 221 µM; concentration at 6 month ([2]; in vivo): 1450 ± 155 µM; Change of total serum concentration versus Month 0 ([2]; in vivo): either did not change or decreased
CCCCCCCCCCCCCCCCC(=O)O[C@H]1CC[C@@]2(C)C(=CC[C@H]3[C@@H]4CC[C@H]([C@H](C)CCCC(C)C)[C@@]4(C)CC[C@@H]32)C1 [C17:0 CE] | 14 ± 4 | 18 ± 7 | 20 ± 8 | 21 ± 9 | 
CCCCCCCCCCCCCCCCC(=O)O [C17:0, heptadecanoic acid] |  |  |  |  | Increased serum concentration as independent, linear predictor of red blood cell indices (red blood cell indices): independently predicted higher hematocrit, higher packed cell volume, higher hemoglobin, and higher red blood cell counts; Serum fatty acid (%) ([3]; MMP Dolphins (n = 30)): 0.3 ± 0.1%; Serum fatty acid (%) [3, 4]: 1.3 ± 0.4%; concentration at 0 month ([2]; serum, oral): 51 ± 9 µM; concentration at 1 month ([2]; serum, oral): 82 ± 21 µM; concentration at 3 month ([2]; serum, oral): 93 ± 23 µM; concentration at 6 month ([2]; serum, oral): 85 ± 15 µM
CCCCCCCCCCCCCCCCCCCC(=O)O [C20:0] |  |  |  |  | Serum fatty acid (%) ([3]; MMP Dolphins (n = 30)): 0.9 ± 0.2%; Serum fatty acid (%) [3, 4]: 1.5 ± 0.3%
CCCCCCCCCCCCCCCCCCCCCC(=O)O [C22:0, behenic acid] |  |  |  |  | Serum fatty acid (%) ([3]; MMP Dolphins (n = 30)): 0.2 ± 0.04%; Serum fatty acid (%) [3, 4]: 0.7 ± 0.2%; concentration at 0 month ([2]; in vivo): 23 ± 4 µM; concentration at 1 month ([2]; in vivo): 21 ± 3 µM; concentration at 3 month ([2]; in vivo): 23 ± 3 µM; concentration at 6 month ([2]; in vivo): 24 ± 5 µM
CCCCCCCCCCCCCCCCCCCCCCCC(=O)O [C24:0] |  |  |  |  | Serum fatty acid (%) ([3]; MMP Dolphins (n = 30)): 0.1 ± 0.0%; Serum fatty acid (%) [3, 4]: 0.5 ± 0.1%
CCCCCCCCCCCCCCCCCCCCCCCCCC(=O)O [C26:0] |  |  |  |  | Change of total serum concentration versus Month 0 ([2]; in vivo): increased

More lines, main results first:

Serum concentrations of fatty acid forms ([1]; Month 0 (baseline)) [µM] | Serum concentrations of fatty acid forms ([1]; Month 1) [µM] | Serum concentrations of fatty acid forms ([1]; Month 3) [µM] | Serum concentrations of fatty acid forms ([1]; Month 6) [µM] | SMILES | also measured
0.50 ± 0.10 | 0.39 ± 0.08 | 0.42 ± 0.08 | 0.41 ± 0.07 | CCCCCCCCCCCCC/C=C/[C@@H](O)[C@H](CO)NC(=O)CCCCCCCCCCCCCCCCCCC [C20:0 CER] | 
6.6 ± 2.5 | 4.4 ± 1.4 | 5.0 ± 2.3 | 17 ± 10 | CCCCCCCCCCCCCCCCCCCC(=O)O [C20:0 FFA] | 
0.19 ± 0.04 | 0.23 ± 0.05 | 0.26 ± 0.07 | 0.25 ± 0.06 | CCCCCCCCCCCCC/C=C/[C@@H](O)[C@H](CO)NC(=O)CCCCCCCCCCCCCCCCCCCCC [C22:0 CER] | 
8.5 ± 2.4 | 5.7 ± 1.5 | 5.9 ± 1.5 | 6.3 ± 2.1 | CCCCCCCCCCCCCCCCCCCCCC(=O)O[C@H]1CC[C@@]2(C)C(=CC[C@H]3[C@@H]4CC[C@H]([C@H](C)CCCC(C)C)[C@@]4(C)CC[C@@H]32)C1 [C22:0 CE] | 
0.07 ± 0.02 | 0.11 ± 0.03 | 0.13 ± 0.05 | 0.12 ± 0.03 | CCCCCCCCCCCCCCCCCCCCCCCC(=O)N[C@@H](CO)[C@H](O)CCCCCCCCCCCCCCC [C24:0 DCER] | 
